Patent US20240084002A1, “METHODS AND COMPOSITIONS UTILIZING IDO1-DEPENDENT VASCULARIZING CELLS FOR THE TREATMENT OF PATHOLOGICAL CONDITIONS INVOLVING NEOVASCULARIZATION” (LANKENAU INSTITUTE FOR MEDICAL RESEARCH, priority 2020, published 2024)
Where two headings read alike, the source gives them in different places.

What was measured:
U937 and HL60 cells [1] = assay: Viability assay (LDI Cell CountEZ TPS assay kit); conditions: IFNγ+LPS, at the concentrations used (1 μM), 24 hrs
Method: (§2) Viability assay. Cell viability in U937 and HL60 cells was measured by LDI Cell CountEZ™ toxicity, proliferation and survival (TPS) assay kit (LDI1201™) as per the manufacturer's protocol. Both cell lines were plated at a density of 10,000 cells/ well of a 96 well plate in 100 μl DMEM medium with 10% FBS. […] Bortezomib (20 nM; LC Laboratories, Cat# B-1408) was used as positive control for inducing cellular apoptosis. Treated cells were incubated at 37° C. in a humidified CO2 incubator for 24 hrs. The TPS assay was then performed with cell viability assessed by reading absorbance at 412 nm in a microtiter plate reader.

ATF4 = assay: qPCR of IFNγ+LPS mediated induction of ATF4 in U937 and HL60 cells (ISR activation); type: cell-based, human; conditions: inhibitor 1 μM, 24 hr
From the text: (§1) Quantitative real time PCR analysis.

IL6 gene expression [2] = assay: qPCR of IFNγ+LPS mediated induction of IL6 gene expression in U937 and HL60 cells; type: cell-based, human; conditions: inhibitor 1 μM, 24 hr
From the text: as §1

IDO1 [3] = target: T1, IDO1 (Homo sapiens, UniProt P14902); assay: Kynurenine levels in supernatants of IFNγ+LPS treated U937 and HL60 cells (IDO1 activity); type: cell-based; conditions: inhibitor 1 μM, 24 hr
T1 construct: endogenous in cells; host or cells: U937 (ATCC CRL-1593.2) and HL60 (ATCC CCL-240), stimulated with IFNγ + LPS
Method: Kynurenine assay. Levels of kynurenine in U937 and HL60 cell supernatants were measured using Ehrlich's reagent (p-dimethylamino-benzaldehyde). Following treatments, supernatants were collected and transferred to a V-bottom 96-well plate and mixed with 40 μL 50% (w/v) trichloroacetic acid (TCA; LabChem) to precipitate any protein. The plate was then incubated at 65° C. for 30 minutes followed by centrifugation at 1250×g for 10 minutes. Following centrifugation, 100 μL of clarified supernatant was transferred to a new flat-bottomed 96-well plate and mixed at equal volumes with 2% (w/v) Ehrlich's reagent in acetic acid. The resulting reaction was measured at 490 nm using a Synergy HT microtiter plate reader (Bio-Tek). Vitreous humor was collected from eyes of mice that underwent the OIR process. Levels of kynurenine were measured using the IDK® Kynurenin ELISA kit (Immundiagnostik AG, Bensheim, Germany) according to manufacturer's protocol. Additionally, levels of kynurenine were confirmed by high-performance liquid chromatography (HPLC) coupled to electrospray ionization liquid chromatography/ tandem mass spectroscopy (LC/MS-MS) as described (18).

CHOP = assay: qPCR of IFNγ+LPS mediated induction of CHOP in U937 and HL60 cells (ISR activation); type: cell-based, human; conditions: inhibitor 1 μM, 24 hr
From the text: as §1

CYP1A1 = assay: qPCR of IFNγ+LPS mediated induction of CYP1A1 in U937 and HL60 cells (AHR activation); conditions: inhibitor 1 μM, 24 hr
Method: Cell culture. The 4T1 (mouse mammary carcinoma; ATCC Cat# CRL-2539) and U937 (human histiocytic lymphoma; ATCC Cat# CRL-1593.2) cell lines were cultured in DMEM supplemented with penicillin, streptomycin, 10% FBS and 55 μM β-mercaptaethanol. The HL60 (human promyelocytic leukemia; ATCC Cat# CCL-240) cell line was maintained in IMDM media supplemented with 10% FCS plus 55 μM β-mercaptaethanol, 2 mM glutamax (Life Technologies), and 50 μg/ml gentamicin. […] No mycoplasma testing was done on the U937 or HL60 cell lines. […] In vitro experiments were performed with U937 and HL60 cells maintained no longer than passage 6. […] At 24 hr mRNA was prepared from the treated cells for qPCR-based analysis of gene expression and cell culture media was analyzed for levels of kynurenine to assess IDO1 enzymatic activity.
Quantitative real time PCR analysis. […] Quantitative PCR (QPCR) reactions were run using the Fast Start Universal SYBR Green Mix (Roche Applied Science) with an Eppendorf Realplex 4 Mastercycler QPCR machine. Levels of mRNA expression detected with primers specific for Atf4, Chop Il6 and Cyp1a1 (Tables 1-3) were normalized to 18S mRNA levels and differences between treatment groups were analyzed using the δ-δ cycle threshold method.

IDO1 [4] = target: T1, IDO1; conditions: U937 and HL60 cells, previously shown, reference (9); cited from earlier work
IL6 gene expression [5] = conditions: U937 and HL60 cells, previously shown, reference (9); cited from earlier work
4T1 metastases = conditions: prior finding, reference (7); cited from earlier work
NOS2 = NOS2 staining of 4T1 lung metastases; type: in vivo, mouse; conditions: WT mice with 4T1 lung metastases, 50 mg/kg p.o. b.i.d. over 3 days
Gr-1+ CD11b^lo cells = assay: Matrigel plug assay, neovascular density; type: in vivo, mouse; conditions: plugs with WT Gr-1+ CD11b^lo cells in WT mice, 50 mg/kg oral gavage b.i.d. for the final 3 days, plugs resected at day 9
Method: Matrigel Plug Assay. To assess the in vivo neovascularizing capability of select immune cell populations isolated from 4T1 pulmonary metastases, 5×10^4-2×10^6 sorted cells were isolated (as indicated in the corresponding figure legends) by fluorescence-activated cell sorting (BD FACSAria III) into RPMI+10% FCS and put on ice. Immediately following sorting, isolated immune cell populations were suspended in 250 μl PBS and combined with 250 μl Matrigel (Corning® Cat# 356237) per plug on ice for in vivo injections. Plugs were established by subcutaneous injection in the dorsal region of recipient mice using an ice-cold syringe with a 21 gauge needle. […] After 9 days post injection, the matrigel plug was harvested and images recorded with either a Samsung Galaxy S6 or an iPhone X using the 2× lens with an additional 10× macro lens attachment (Moment).
For blood vessel quantification, the Matrigel plugs were blocked in OCT and cryosectioned using the tape transfer method ([…] per plug). Following sectioning, neovascularization was visualized under confocal microscope by fluorescence staining with rabbit anti-mouse for caveolin 1 and quantitatively analyzed using Adobe Photoshop as described above. Statistical Analysis. […] Significance for Kaplan-Meier survival curves was determined by 2-group log-rank test. […]

U937 and HL60 cells [6] = conditions: human, 24 h, 1 μM
Method: as §2

T1 sequence (P14902 whole entry): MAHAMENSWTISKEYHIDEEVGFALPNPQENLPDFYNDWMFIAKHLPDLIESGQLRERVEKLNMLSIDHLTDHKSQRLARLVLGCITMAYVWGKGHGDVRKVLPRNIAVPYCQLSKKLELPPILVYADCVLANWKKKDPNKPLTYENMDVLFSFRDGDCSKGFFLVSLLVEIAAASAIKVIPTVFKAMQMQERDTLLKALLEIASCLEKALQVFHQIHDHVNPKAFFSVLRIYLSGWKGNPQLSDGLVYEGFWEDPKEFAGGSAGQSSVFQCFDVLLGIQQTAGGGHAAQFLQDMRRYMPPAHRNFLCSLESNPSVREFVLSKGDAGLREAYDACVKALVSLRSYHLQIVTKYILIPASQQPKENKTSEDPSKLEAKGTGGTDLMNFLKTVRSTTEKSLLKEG

Compound | impact on cell viability (U937 and HL60 cells [1]) | effect on induction of ATF4 message (ATF4) | effect on IL6 gene expression (IL6 gene expression [2]) | effect on the level of kynurenine produced (IDO1 [3]) | effect on induction of CHOP message (CHOP) | other results
O=C(COc1ccc(Cl)cc1)NC1CCC(NC(=O)COc2ccc(Cl)cc2)CC1 (stereo not drawn) [ISRIB] | Neither ISRIB, Epacadostat nor BAY-218 had a sufficient impact on cell viability | blocked induction | effectively blocked | neither had a significant effect | blocked induction | 
C[C@@H](CO)NC(=O)c1cc(-c2ccc(Cl)cc2)nn(-c2cccc(F)c2)c1=O [BAY-218] | Neither ISRIB, Epacadostat nor BAY-218 had a sufficient impact on cell viability |  | no significant effect | neither had a significant effect |  | effect on induction of CYP1A1 message (CYP1A1): blocked induction of CYP1A1
methylthiohydantoin-DL-tryptophan [MTH-Trp] |  |  |  |  |  | IFNγ+LPS-mediated induction of IDO1 activity (IDO1 [4]): could be blocked; corresponding increase in IL6 (IL6 gene expression [5]): could be blocked
NS(=O)(=O)NCCNc1nonc1C(=NO)Nc1ccc(F)c(Br)c1 [Epacadostat] |  | effectively blocked |  |  | effectively blocked | blood vessel formation within established 4T1 metastases (4T1 metastases): reverses blood vessel formation; NOS2 expression within lung metastases (NOS2): elicits NOS2 elevation; degree of neovascularization in Matrigel plugs (Gr-1+ CD11b^lo cells): decreased the degree of neovascularization promoted by CD11b^lo cells to a level quantifiably indistinguishable from CD11b^hi cells; reduction IL6 gene expression (IL6 gene expression [2]): ≥ 99%; impact on cell viability (U937 and HL60 cells [6]): Neither ISRIB, Epacadostat nor BAY-218 had a sufficient impact on cell viability
